Assay results reported in ChEMBL document CHEMBL4622974, “Leveraging an Open Science Drug Discovery Model to Develop CNS-Penetrant ALK2 Inhibitors for the Treatment of Diffuse Intrinsic Pontine Glioma” (J Med Chem, 2020).
Active and inactive are the calls of the source. The calls are words filed in the database; no cut-off is given here.

Tests used:
[1] = molecular target: Alpha-1A adrenergic receptor (Rattus norvegicus, UniProt P43140); assay: Inhibition of rat adrenergic alpha1A receptor at 10 uM relative to control
[2] = molecular target: Cytochrome P450 3A4 (Homo sapiens, UniProt P08684); assay: Inhibition of CYP3A4 in human liver microsomes using testosterone as substrate incubated for 10 mins in presence of NADPH by LC/MS/MS analysis; assay type: ADME
[3] = Protein binding in CD-1 mouse brain at 1 mg/kg, iv measured at 2 hrs; assay type: ADME, organism-based; conditions: read-out: PB (converted)
[4] = Protein binding in CD-1 mouse plasma at 1 mg/kg, iv measured at 2 hrs by LC/MS/MS method; assay type: ADME, organism-based; conditions: read-out: PPB
[5] = Toxicity in C57BL/6 mouse assessed as mouse death at 50 mg/kg, po QD administered for 5 days measured after 24 hrs; assay type: organism-based; conditions: in vivo
[6] = Ratio of drug level in brain to plasma in CD-1 mouse at 10 mg/kg, po measured at 2 hrs; assay type: ADME, organism-based; conditions: brain and plasma, read-out: BPR
[7] = molecular target: Bone morphogenetic protein receptor type-1A (Homo sapiens, UniProt P36894); assay: Inhibition of human ALK3 using casein as substrate in presence of [gamma-33P]-ATP by radiometric hotspot assay
[8] = molecular target: Cannabinoid receptor 1 (CB1) (Homo sapiens, UniProt P21554); assay: Inhibition of recombinant human CB1 at 10 uM incubated for 60 mins by scintillation counting method
[9] = Plasma concentration in NOD/SCID mouse at 25 mg/kg, po measured after 0.5 to 6 hrs; assay type: ADME, organism-based; conditions: in vivo
[10] = molecular target: Alpha-2A adrenergic receptor (Homo sapiens, UniProt P08913); assay: Inhibition of recombinant human adrenergic alpha2A receptor incubated for 60 mins by scintillation counting method
[11] = Toxicity in C57BL/6 mouse assessed as gross pathology at 50 mg/kg, po QD administered for 5 days measured after 24 hrs relative to control; assay type: organism-based; conditions: in vivo
[12] = Ratio of drug level in brain to plasma in CB17 SCID mouse at 25 mg/kg, po measured at 4 h; assay type: ADME, organism-based; conditions: read-out: BPR
[13] = molecular target: Cytochrome P450 1A2 (Homo sapiens, UniProt P05177); assay: Inhibition of CYP1A2 in human liver microsomes using phenacetin as substrate incubated for 20 mins in presence of NADPH by LC/MS/MS analysis; assay type: ADME
[14] = molecular target: Cytochrome P450 2D6 (Homo sapiens, UniProt P10635); assay: Inhibition of CYP2D6 in human liver microsomes using dextromethorphan as substrate incubated for 20 mins in presence of NADPH by LC/MS/MS analysis; assay type: ADME
[15] = molecular target: Voltage-gated inwardly rectifying potassium channel KCNH2 (Homo sapiens, UniProt Q12809); assay: Inhibition of human ERG expressed in HEK293 cells after 5 mins by IonWorks barracuda patch clamp method; assay type: cell-based
[16] = Drug concentration in CB17 SCID mouse brain at 100 mg/kg after 0.25 to 24 hrs; assay type: ADME, organism-based; conditions: in vivo, read-out: Drug uptake
[17] = molecular target: T1, Activin receptor type-1 (Homo sapiens, UniProt Q04771); assay: Competitive displacement of PBI-6908 from nanoluciferase-fused ALK2 (unknown origin) expressed in HEK293 cells incubated for 2 hrs by NanoBRET NanoGlo substrate based NanoBRET assay; assay type: cell-based
T1 sequence (Q04771 whole entry): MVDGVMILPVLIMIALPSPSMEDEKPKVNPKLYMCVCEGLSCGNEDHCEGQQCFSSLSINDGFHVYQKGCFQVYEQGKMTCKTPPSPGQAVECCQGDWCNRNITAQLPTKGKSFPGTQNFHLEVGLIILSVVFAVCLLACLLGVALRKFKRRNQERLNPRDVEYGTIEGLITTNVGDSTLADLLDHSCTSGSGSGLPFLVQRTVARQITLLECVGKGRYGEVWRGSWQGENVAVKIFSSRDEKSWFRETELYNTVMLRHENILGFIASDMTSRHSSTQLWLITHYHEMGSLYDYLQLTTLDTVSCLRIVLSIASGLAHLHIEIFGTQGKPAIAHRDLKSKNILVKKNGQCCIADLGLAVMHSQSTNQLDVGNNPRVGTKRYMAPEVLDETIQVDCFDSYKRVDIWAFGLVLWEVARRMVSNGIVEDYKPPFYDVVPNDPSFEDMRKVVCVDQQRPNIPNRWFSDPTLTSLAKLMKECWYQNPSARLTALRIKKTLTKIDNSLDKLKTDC

[18] = molecular target: Tyrosine-protein kinase Lyn (Homo sapiens) (UniProt P07948); assay: Inhibition of LYN (unknown origin)
Sequence of Tyrosine-protein kinase Lyn (Homo sapiens) (P07948 2-512 limits assumed): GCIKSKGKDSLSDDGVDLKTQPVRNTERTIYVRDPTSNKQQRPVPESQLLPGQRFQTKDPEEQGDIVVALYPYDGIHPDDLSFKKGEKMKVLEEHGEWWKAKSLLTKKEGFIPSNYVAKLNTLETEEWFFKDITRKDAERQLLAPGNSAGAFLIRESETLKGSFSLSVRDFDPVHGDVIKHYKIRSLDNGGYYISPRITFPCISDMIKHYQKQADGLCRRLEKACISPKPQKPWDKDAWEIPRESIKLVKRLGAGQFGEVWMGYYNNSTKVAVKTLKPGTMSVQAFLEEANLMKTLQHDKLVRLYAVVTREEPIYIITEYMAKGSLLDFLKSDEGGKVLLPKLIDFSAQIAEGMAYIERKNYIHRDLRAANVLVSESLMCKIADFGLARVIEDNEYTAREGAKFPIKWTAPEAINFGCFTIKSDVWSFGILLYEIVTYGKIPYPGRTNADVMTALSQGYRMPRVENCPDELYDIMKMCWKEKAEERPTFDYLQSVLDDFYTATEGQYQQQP

Sequence of Voltage-gated inwardly rectifying potassium channel KCNH2 (Q12809 whole entry): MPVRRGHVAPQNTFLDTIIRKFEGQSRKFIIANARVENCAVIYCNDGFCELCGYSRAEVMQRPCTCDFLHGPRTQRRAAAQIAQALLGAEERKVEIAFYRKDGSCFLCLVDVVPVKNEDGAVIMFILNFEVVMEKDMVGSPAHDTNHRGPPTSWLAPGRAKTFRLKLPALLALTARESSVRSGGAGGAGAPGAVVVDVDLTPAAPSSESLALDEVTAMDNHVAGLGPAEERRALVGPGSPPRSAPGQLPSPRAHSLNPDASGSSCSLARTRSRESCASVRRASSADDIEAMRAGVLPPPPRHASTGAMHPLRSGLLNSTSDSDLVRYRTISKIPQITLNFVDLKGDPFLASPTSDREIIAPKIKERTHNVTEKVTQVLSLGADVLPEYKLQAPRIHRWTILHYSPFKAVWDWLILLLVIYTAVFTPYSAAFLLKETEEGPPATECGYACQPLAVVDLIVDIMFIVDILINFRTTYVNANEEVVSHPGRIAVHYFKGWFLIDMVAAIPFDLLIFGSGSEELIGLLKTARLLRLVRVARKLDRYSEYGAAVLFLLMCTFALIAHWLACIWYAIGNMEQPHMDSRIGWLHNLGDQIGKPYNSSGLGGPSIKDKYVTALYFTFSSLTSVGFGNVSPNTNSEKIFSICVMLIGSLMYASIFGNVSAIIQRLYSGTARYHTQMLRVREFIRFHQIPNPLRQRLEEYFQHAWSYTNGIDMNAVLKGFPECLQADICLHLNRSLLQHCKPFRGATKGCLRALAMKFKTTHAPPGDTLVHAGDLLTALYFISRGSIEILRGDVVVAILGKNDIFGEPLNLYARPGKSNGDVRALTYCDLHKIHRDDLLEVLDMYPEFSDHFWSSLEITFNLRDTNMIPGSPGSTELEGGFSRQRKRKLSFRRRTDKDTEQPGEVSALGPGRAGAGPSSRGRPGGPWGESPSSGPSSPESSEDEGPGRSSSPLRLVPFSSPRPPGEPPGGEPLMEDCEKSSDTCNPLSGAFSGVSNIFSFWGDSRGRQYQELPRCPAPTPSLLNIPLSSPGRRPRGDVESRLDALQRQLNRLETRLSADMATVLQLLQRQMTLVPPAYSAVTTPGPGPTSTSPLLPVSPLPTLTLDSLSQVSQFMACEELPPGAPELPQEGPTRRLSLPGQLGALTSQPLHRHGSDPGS
Sequence of Cytochrome P450 1A2 (P05177 whole entry): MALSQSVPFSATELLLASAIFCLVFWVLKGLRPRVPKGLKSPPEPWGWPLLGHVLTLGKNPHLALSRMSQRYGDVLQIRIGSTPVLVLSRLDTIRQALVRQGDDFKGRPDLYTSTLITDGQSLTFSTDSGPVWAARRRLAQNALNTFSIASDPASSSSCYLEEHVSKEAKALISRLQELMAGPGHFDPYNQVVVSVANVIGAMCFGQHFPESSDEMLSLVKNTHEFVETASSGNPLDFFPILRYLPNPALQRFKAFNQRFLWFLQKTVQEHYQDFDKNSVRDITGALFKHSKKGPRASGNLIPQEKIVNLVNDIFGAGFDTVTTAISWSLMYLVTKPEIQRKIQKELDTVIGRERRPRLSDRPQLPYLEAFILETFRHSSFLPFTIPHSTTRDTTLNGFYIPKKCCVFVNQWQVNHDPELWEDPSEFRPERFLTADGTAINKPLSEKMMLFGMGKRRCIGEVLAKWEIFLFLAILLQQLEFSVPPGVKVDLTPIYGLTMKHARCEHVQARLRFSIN
Sequence of Alpha-2A adrenergic receptor (P08913 whole entry): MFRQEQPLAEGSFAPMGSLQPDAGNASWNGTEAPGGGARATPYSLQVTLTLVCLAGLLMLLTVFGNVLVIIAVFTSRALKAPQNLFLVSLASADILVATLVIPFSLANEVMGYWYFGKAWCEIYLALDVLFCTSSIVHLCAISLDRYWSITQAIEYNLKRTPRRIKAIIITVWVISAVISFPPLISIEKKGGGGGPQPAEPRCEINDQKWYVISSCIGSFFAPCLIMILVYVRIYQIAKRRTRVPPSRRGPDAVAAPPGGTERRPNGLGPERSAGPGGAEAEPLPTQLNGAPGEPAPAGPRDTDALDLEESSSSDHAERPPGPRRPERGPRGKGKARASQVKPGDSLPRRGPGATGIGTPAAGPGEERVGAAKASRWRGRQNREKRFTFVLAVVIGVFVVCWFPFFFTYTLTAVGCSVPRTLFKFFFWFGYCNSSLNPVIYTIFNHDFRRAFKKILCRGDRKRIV
Sequence of Cytochrome P450 2D6 (P10635 whole entry): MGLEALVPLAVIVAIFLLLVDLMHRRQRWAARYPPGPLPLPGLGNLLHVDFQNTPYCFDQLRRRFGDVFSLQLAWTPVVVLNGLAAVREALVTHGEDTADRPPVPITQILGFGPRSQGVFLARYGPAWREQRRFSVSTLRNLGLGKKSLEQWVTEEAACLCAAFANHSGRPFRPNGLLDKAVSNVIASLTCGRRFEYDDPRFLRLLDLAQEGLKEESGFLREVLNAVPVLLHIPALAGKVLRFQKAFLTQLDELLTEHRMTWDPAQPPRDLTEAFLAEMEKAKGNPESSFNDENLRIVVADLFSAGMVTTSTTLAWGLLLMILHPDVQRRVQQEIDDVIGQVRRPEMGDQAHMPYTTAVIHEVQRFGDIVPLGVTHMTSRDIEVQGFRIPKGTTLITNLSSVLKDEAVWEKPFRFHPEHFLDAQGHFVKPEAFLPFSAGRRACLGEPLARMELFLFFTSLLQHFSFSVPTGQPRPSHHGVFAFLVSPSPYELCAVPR
Sequence of Bone morphogenetic protein receptor type-1A (P36894 whole entry): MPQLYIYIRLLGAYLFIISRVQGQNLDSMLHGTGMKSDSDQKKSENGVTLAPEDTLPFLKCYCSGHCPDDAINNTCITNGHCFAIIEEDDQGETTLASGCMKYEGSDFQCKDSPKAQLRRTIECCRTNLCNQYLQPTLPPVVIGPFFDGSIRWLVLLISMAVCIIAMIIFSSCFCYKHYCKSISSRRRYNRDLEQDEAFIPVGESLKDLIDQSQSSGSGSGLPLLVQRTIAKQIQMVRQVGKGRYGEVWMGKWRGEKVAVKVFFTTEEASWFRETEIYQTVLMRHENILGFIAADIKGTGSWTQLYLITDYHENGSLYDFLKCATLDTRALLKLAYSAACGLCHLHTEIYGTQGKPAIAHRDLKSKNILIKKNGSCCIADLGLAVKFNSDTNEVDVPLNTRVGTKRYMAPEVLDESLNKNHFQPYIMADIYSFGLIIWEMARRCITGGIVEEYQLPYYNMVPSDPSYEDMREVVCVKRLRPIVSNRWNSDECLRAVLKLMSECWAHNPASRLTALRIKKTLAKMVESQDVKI
Sequence of Cytochrome P450 3A4 (P08684 whole entry): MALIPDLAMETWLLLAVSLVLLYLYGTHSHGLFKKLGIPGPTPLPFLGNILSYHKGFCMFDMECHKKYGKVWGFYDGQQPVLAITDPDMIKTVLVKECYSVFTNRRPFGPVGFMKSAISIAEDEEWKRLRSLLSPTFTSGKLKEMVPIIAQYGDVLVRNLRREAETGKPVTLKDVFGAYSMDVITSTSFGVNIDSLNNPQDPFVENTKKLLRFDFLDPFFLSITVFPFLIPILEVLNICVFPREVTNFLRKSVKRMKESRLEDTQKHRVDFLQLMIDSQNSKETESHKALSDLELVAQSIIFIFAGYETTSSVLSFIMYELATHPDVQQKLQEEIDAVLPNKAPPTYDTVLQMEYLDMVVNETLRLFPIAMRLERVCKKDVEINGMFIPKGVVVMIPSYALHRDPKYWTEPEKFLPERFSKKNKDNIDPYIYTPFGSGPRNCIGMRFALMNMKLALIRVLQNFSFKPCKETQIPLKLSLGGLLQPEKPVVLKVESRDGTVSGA
Sequence of Cannabinoid receptor 1 (CB1) (P21554 whole entry): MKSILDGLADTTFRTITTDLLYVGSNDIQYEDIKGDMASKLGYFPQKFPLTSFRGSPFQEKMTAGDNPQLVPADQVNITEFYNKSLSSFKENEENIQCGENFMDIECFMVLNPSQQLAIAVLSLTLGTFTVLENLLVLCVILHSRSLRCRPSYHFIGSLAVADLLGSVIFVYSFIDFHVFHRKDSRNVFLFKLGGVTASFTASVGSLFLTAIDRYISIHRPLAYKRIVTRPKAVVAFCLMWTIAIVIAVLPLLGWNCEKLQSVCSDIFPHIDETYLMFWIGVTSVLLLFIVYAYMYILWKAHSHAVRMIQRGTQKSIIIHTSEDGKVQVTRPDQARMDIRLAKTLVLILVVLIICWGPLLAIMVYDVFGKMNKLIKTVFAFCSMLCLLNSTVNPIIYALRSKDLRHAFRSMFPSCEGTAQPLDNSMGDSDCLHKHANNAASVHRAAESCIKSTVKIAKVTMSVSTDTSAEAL

Row | SMILES | inhibition at 10 µM [1] [%] | IC50 [2] [µM] | fraction unbound at 2 h [3] | fraction unbound at 2 h [4] | Activity [5] | Kp at 2 h [6] | IC50 [7] [nM] | inhibition at 1 h, 10 µM [8] [%] | concentration [9] [µM] | IC50 [10] [nM] | Activity [11] | Kp at 4 h [12] | IC50 [13] [µM] | IC50 [14] [µM] | IC50 [15] [µM] | concentration [16] [µM] | IC50 [17] [nM] | inhibition [18]
1 | COc1cc(-c2cncc(-c3ccc(N4CCNCC4)cc3)c2C)cc(OC)c1OC | 65 | > 9 | 0.03 | 0.09 | Non-Toxic | 0.9 | 428 | 97 | 7.46 | 2180 | Non-Toxic | 1.5 | > 30 | > 30 |  |  |  | 
2 | COc1cc(-c2cncc(-c3ccc(C4CCN(C)CC4)cc3)c2C)cc(OC)c1OC |  |  |  |  |  |  |  |  |  |  |  |  |  |  | 4.8 | 39 | 29 | Active
